Where two headings read alike, the source gives them in different places.
Tests used:
[1] = test system: cultured human mast cells (CHMC); assay: CHMC low cell density IgE activation: tryptase assay; type: cell-based; settings: anti-IgE stimulated, tryptase release, first symbol of cell
Procedure: Inhibition of degranulation was measured at both low and high cell density by quantifying the release of the granule specific factors tryptase, histamine and hexosaminidase. Inhibition of release and/or synthesis of lipid mediators was assessed by measuring the release of leukotriene LTC4 and inhibition of release and/or synthesis of cytokines was monitored by quantifying TNF-α, IL-6 and IL-13. Tryptase and hexosaminidase were quantified using fluorogenic substrates as described in their respective examples. Histamine, TNFα, IL-6, IL-13 and LTC4 were quantified using the following commercial ELISA kits: histamine (Immunotech #2015, Beckman Coulter), TNFα (Biosource #KHC3011), IL-6 (Biosource #KMC0061), IL-13 (Biosource #KHC0132) and LTC4 (Cayman Chemical #520211). The protocols of the various assays are provided below.
7.7.2 CHMC Low Cell Density IgE Activation: Tryptase and LTC4 Assays
To duplicate 96-well U-bottom plates (Costar 3799) add 65 ul of compound dilutions or control samples that have been prepared in MT [137 mM NaCl, 2.7 mM KCl, 1.8 mM CaCl2, 1.0 mM MgCl2, 5.6 mM Glucose, 20 mM Hepes (pH 7.4), 0.1% Bovine Serum Albumin, (Sigma A4503)] containing 2% MeOH and 1% DMSO. Pellet CHMC cells (980 rpm, 10 min) and resuspend in pre-warmed MT. Add 65 ul of cells to each 96-well plate. Depending on the degranulation activity for each particular CHMC donor, load 1000-1500 cells/well. Mix four times followed by a 1 hr incubation at 37° C. During the 1 hr incubation, prepare 6× anti-IgE solution [rabbit anti-human IgE (1 mg/ml, Bethyl Laboratories A80-109A) diluted 1:167 in MT buffer]. Stimulate cells by adding 25 ul of 6× anti-IgE solution to the appropriate plates. Add 25 ul MT to un-stimulated control wells. Mix twice following addition of the anti-IgE. Incubate at 37° C. for 30 minutes. During the 30 minute incubation, dilute the 20 mM tryptase substrate stock solution [(Z-Ala-Lys-Arg-AMC2TFA; Enzyme Systems Products, #AMC-246)] 1:2000 in tryptase assay buffer [0.1 M Hepes (pH 7.5), 10% w/v Glycerol, 10 uM Heparin (Sigma H-4898) 0.01% NaN3]. Spin plates at 1000 rpm for 10 min to pellet cells. Transfer 25 ul of supernatant to a 96-well black bottom plate and add 100 ul of freshly diluted tryptase substrate solution to each well. Incubate plates at room temperature for 30 min. Read the […] of the plates at 355 nm/460 nm on a spectrophotometric plate reader.

[2] = test system: cultured human mast cells (CHMC); assay: CHMC low cell density ionomycin activation: tryptase assay; type: cell-based; settings: ionomycin stimulated, tryptase release
Procedure: To confirm that many of the quinoline compounds of the invention exert their inhibitory activity by blocking or inhibiting the early IgE receptor signal transduction cascade, many of the compounds were tested in cellular assays for ionomycin-induced degranulation, as described below.
7.8.1 CHMC Low Cell Density Ionomycin Activation: Tryptase Assay
Assays for ionomycin-induced mast cell degranulation were carried out as described for the CHMC Low Density IgE Activation assays (Section 7.7.2, supra), with the exception that during the 1 hour incubation, 6× ionomycin solution [5 mM ionomycin (Signma 1-0634) in MeOH (stock) diluted 1:416.7 in MT buffer ([…])] was prepared and cells were stimulated by adding 25 μl of the 6× ionomycin solution to the appropriate plates.

[3] = test system: mouse model of passive cutaneous anaphylaxis (PCA); settings: i.p., 30 minutes pretreatment time
Procedure: This model provides a direct measure of IgE-induced degranulation of tissue mast cells. In this model, IgE primed animals are exposed to an allergen challenge and the change in permeability of dermal vasculature that results from histamine release from mast cells is measured by change in the amount of dye leakage into surrounding tissue. Inhibition of mediator release by compounds that modulate mast cell degranulation is easily measured by extracting the dye from the tissue.
In the PCA assay mice are passively sensitized by intradermal injection with anti-dinitrophenol (DNP) IgE antibodies (Day-1). At predetermined times (5-60 minutes prior to challenge), animals are treated with the test agent (Day 0). The modulatory effect of the agent on cutaneous mast cell degranulation is measured following intravenous injection of DNP conjugated to human serum albumin (HSA-DNP), together with Evans blue dye. The resulting cross-linking of the IgE receptor and subsequent mast cell degranulation-induced increase in vascular permeability is determined by measuring the amount of dye extravasation into the tissue. Dye is extracted from the tissue by formamide, and the absorbance of this extract is read at 620 nm. The inhibitory effect of drug treatment is reported as the percent inhibition compared to vehicle treatment, that is, the percent reduction in A620. […]

[4] = second symbol of cell, read-out: CHMC -IONO
[5] = Homo sapiens, Mast cell, second symbol of cell, read-out: CHMC -IONO

Cc1noc(C)c1NC(=O)c1cc(-c2ccccc2)nc2ccccc12 [Compound 1]
IC50 [1]: > 10 µM | IC50 [2, 4]: > 10 µM

Cc1cc(NC(=O)c2c(-c3ccccc3)noc2C)c2ccccc2n1 [Compound 3]
IC50 [1]: > 10 µM

Cc1onc(-c2ccccc2)c1C(=O)Oc1ccnc2ccccc12 [Compound 5]
IC50 [1]: ≤ 10 µM | IC50 [2, 4]: ≤ 10 µM

Cc1onc(-c2ccccc2)c1C(=O)Oc1ccnc2cc(Cl)ccc12 [Compound 7]
IC50 [1]: ≤ 10 µM | IC50 [2, 4]: ≤ 10 µM

Cc1cc(OC(=O)c2c(-c3ccccc3)noc2C)c2ccccc2n1 [Compound 9, 5-Methyl-3-phenyl-4-isoxazolecarboxylic acid, 2-methyl-4-quinolinyl Ester]
IC50 ([1]; Homo sapiens, Mast cell): ≤ 10 µM | IC50 [2, 5]: ≤ 10 µM

Cc1cc(OC(=O)c2c(-c3ccccc3)noc2C)c2cc(F)ccc2n1 [Compound 11]
IC50 [1]: ≤ 10 µM | IC50 [2, 4]: ≤ 10 µM

Cc1onc(-c2ccccc2)c1C(=O)Oc1ccnc2cc(C(F)(F)F)ccc12 [Compound 13]
IC50 [1]: ≤ 10 µM | IC50 [2, 4]: ≤ 10 µM

Cc1onc(-c2ccccc2)c1C(=O)Oc1ccnc2c(C(F)(F)F)cccc12 [Compound 15]
IC50 [1]: ≤ 10 µM

CCOC(=O)c1cnc2cc(C(F)(F)F)ccc2c1OC(=O)c1c(-c2ccccc2)noc1C [Compound 17]
IC50 [1]: ≤ 10 µM | IC50 [2, 4]: ≤ 10 µM

CCOC(=O)c1cc(OC(=O)c2c(-c3ccccc3)noc2C)c2ccccc2n1 [Compound 19]
IC50 [1]: ≤ 10 µM | IC50 [2, 4]: ≤ 10 µM

Cc1cc(OC(=O)c2c(C)noc2C)c2cc(F)ccc2n1 [Compound 21]
IC50 [1]: ≤ 10 µM

Cc1cc(OC(=O)c2c(-c3c(F)cccc3Cl)noc2C)c2cc(F)ccc2n1 [Compound 23]
IC50 [1]: ≤ 10 µM

Cc1cc(OC(=O)c2c(-c3ccccc3Cl)noc2C)c2cc(F)ccc2n1 [Compound 25]
IC50 [1]: ≤ 10 µM | IC50 [2, 4]: ≤ 10 µM

Cc1onc(-c2ccccc2)c1C(=O)Oc1cc(C(F)(F)F)nc2ccc(OC(F)(F)F)cc12 [Compound 27]
IC50 [1]: ≤ 10 µM | IC50 [2, 4]: ≤ 10 µM

Cc1noc(C)c1C(=O)Oc1cc(C(F)(F)F)nc2ccc(OC(F)(F)F)cc12 [Compound 29]
IC50 [1]: ≤ 10 µM | IC50 [2, 4]: ≤ 10 µM

Cc1onc(-c2c(F)cccc2Cl)c1C(=O)Oc1cc(C(F)(F)F)nc2ccc(OC(F)(F)F)cc12 [Compound 31]
IC50 [1]: ≤ 10 µM | IC50 [2, 4]: ≤ 10 µM

Cc1onc(-c2ccccc2Cl)c1C(=O)Oc1cc(C(F)(F)F)nc2ccc(OC(F)(F)F)cc12 [Compound 33]
IC50 [1]: ≤ 10 µM

Cc1onc(-c2ccccc2)c1C(=O)Nc1ccnc2cc(C(F)(F)F)ccc12 [Compound 35, 5-Methyl-3-phenyl-N-(7-trifluoromethyl-4-quinolinyl)-4-isoxazolecarboxamide]
IC50 ([1]; Homo sapiens, Mast cell): ≤ 10 µM | IC50 [2, 5]: ≤ 10 µM

Cc1noc(C)c1C(=O)Nc1ccnc2cc(C(F)(F)F)ccc12 [Compound 37]
IC50 [1]: > 10 µM | IC50 [2, 4]: > 10 µM

Cc1onc(-c2c(F)cccc2Cl)c1C(=O)Nc1ccnc2cc(C(F)(F)F)ccc12 [Compound 39]
IC50 [1]: ≤ 10 µM | IC50 ([2]; read-out: CHMC -IONO (number printed instead of class symbol)): 30 µM

Cc1onc(-c2ccccc2Cl)c1C(=O)Nc1ccnc2cc(C(F)(F)F)ccc12 [Compound 41]
IC50 [1]: > 10 µM | IC50 [2, 4]: > 10 µM

Cc1onc(-c2ccccc2)c1NC(=O)c1cc(Cl)nc2ccc(Br)cc12 [Compound 43, 6-bromo-2-chloro-N-(5-methyl-3-phenylisoxazol-4-yl)-4-quinolinecarboxamide]
IC50 ([1]; Homo sapiens, Mast cell): ≤ 10 µM | IC50 [2, 5]: > 10 µM

Cc1noc(C)c1NC(=O)c1cc(Cl)nc2ccc(Br)cc12 [Compound 45]
IC50 [1]: ≤ 10 µM | IC50 [2, 4]: > 10 µM

Cc1cc(C(=O)Nc2c(-c3ccccc3)noc2C)c2cc(F)ccc2n1 [Compound 47, 6-Fluoro-2-methyl-N-(5-methyl-3-phenylisoxazol-4-yl)-4-quinolinecarboxamide]
IC50 ([1]; Homo sapiens, Mast cell): ≤ 10 µM | IC50 [2, 5]: > 10 µM

Cc1cc(C(=O)Nc2c(C)noc2C)c2cc(F)ccc2n1 [Compound 49]
IC50 [1]: ≤ 10 µM | IC50 [2, 4]: > 10 µM

Cc1onc(-c2ccccc2)c1C(=O)Oc1ccnc2ccc(OC(F)(F)F)cc12 [Compound 51]
IC50 [1]: ≤ 10 µM | IC50 [2, 4]: ≤ 10 µM

Cc1onc(-c2ccccc2Cl)c1C(=O)Oc1ccnc2ccc(OC(F)(F)F)cc12 [Compound 53]
IC50 [1]: ≤ 10 µM | IC50 [2, 4]: ≤ 10 µM

Cc1onc(-c2c(F)cccc2Cl)c1C(=O)Oc1ccnc2ccc(OC(F)(F)F)cc12 [Compound 57]
IC50 [1]: ≤ 10 µM | IC50 [2, 4]: > 10 µM

Cc1onc(-c2ccccc2)c1NC(=O)c1cc(-c2ccccc2)nc2ccccc12 [Compound 61]
IC50 [1]: > 10 µM | IC50 [2, 4]: > 10 µM

Cc1onc(-c2ccccc2)c1NC(=O)c1ccnc2ccccc12 [Compound 63]
IC50 [1]: > 10 µM | IC50 [2, 4]: > 10 µM

Cc1onc(-c2ccccc2)c1NC(=O)c1cc(Nc2ccc3[nH]ccc3c2)nc2ccc(Br)cc12 [Compound 65]
IC50 [1]: ≤ 10 µM | IC50 [2, 4]: > 10 µM

CNc1cc(NC(=O)c2c(-c3ccccc3)noc2C)c2cc(Br)ccc2n1 [Compound 67]
IC50 [1]: ≤ 10 µM | IC50 [2, 4]: > 10 µM

Cc1onc(-c2ccccc2)c1NC(=O)c1cc(Nc2cccc(O)c2)nc2ccc(Br)cc12 [Compound 71, 6-Bromo-2-(3-hydroxyphenyl)amino-N-(5-methyl-3-phenylisoxazol-4-yl)-4-quinolinecarboxamide]
IC50 ([1]; Homo sapiens, Mast cell): ≤ 10 µM | IC50 [2, 5]: ≤ 10 µM

CN1CCC(=C2c3ccccc3C=Cc3ccccc32)CC1 [Cyproheptadine, cyproheptadine]
inhibition of the PCA response ([3]; 8 mg/kg, n=23 experiments): 61% +/−4

CN(C)CCOC(c1ccccc1)c1ccccc1 [diphenhydramine]
inhibition of the PCA response ([3]; highest dose 50 mg/kg): up to 86%
